Experimental data: patent US20120149724A1, “MODULATING ENDOGENOUS BETA-ENDORPHIN LEVELS” (THE GENERAL HOSPITAL CORPORATION, priority 2009, published 2012)
Entries after “also recorded” stand apart in the source; their conditions may differ.

What was measured:
Format in all cases: in vivo
[1] = tested on: Sprague-Dawley rats; experiment: actimetry (locomotor activity) in rats over a daily tail radiation regimen; details: 2 Gy/day tail radiation for 6 weeks; 1 mg/kg ip 15 minutes before actimetry
Protocol: Eight week old male Sprague-Dawley rats underwent a 6-week regimen of 2 Gy/day daily tail radiation of mock exposure. Prior to the start of the regimen, baseline activity was recorded as total distance traveled in 30 minutes in the actimetry chamber. During the regimen and for 2 weeks following the end of the regimen, actimetry measurements were made once per week, and for these measurements, half of the tail-irradiated rats and half of the mock-exposed rats were injected with naloxone (1 mg/kg, ip) 15 minutes prior to actimetry testing, and the other half of tail-irradiated and mock-exposed animals were injected with saline (ip) 15 minutes prior to actimetry testing. In addition, blood was drawn prior to, once weekly during, and once weekly for 2 weeks following the end of the regimen for β-endorphin measurement. […] Top graphs show results for tail-irradiated rats, bottom graphs show results for mock-exposed controls. Left side graphs show results for rats injected with saline prior to actimetry testing, right side graphs show results for rats injected with naloxone prior to actimetry testing. […] Error bars indicate +/−SEM, and (*) indicates p<0.05 by two-tailed Student's t-test with respect to baseline values for that group.

[2] = tested on: C57BL/6 male mice; experiment: analgesic thresholds (von Frey and hot plate assays) over a tail radiation or mock regimen
Protocol: Example 4 describes analgesic response changes in response to tail-only radiation exposure. To obtain the data shown in FIGS. 4A and 4B, 8-week old male mice were either exposed to a dose of 5 Gy/day gamma radiation or mock exposed for 6 weeks. Mechanical (FIG. 4A) and thermal (FIG. 4B) analgesic thresholds were measured twice per week over the course of the regimen, and for 2 weeks after the regimen. The threshold testing was performed in the morning before the radiation treatment or mock exposure. The mock exposed mice were either injected with saline 15 minutes before the testing, or with 10 mg/kg naloxone 15 minutes before the testing. The radiation treatment group was divided into 2 subgroups. The first group was given saline injections 15 minutes before the testing. The second group was given a 10 mg/kg naloxone injection 15 minutes before the testing. For all groups of mice, blood was drawn once per week for beta-endorphin measurement. Data for FIG. 4A was obtained from C57BL/6 male mice, and there were 10 mice per treatment group. Data for FIG. 4B was obtained from C57BL/6 male mice, and there were 10 mice per treatment group. An asterisk indicates p<0.05 by t-test. FIGS. 4A and 4B show both mechanical and thermal analgesic thresholds increase over the radiation regimen similarly to plasma beta-endorphin fluctuations (Figure C).
In this assay of mechanical nociceptive threshold, mice were placed on an elevated wire mesh grid, and the plantar surface of the left hind paw was poked with fibers calibrated to different pressures. Mice were each poked 10 times at each pressure at a rate of 1/second, starting with the lowest pressure and stopping at the pressure that elicits a positive response for a given mouse, thus indicating the mechanical nociceptive threshold for that mouse. A positive response was 2/10 responses of paw flinching, fluttering, or licking immediately following the poke. These experiments were performed in mice undergoing daily tail radiation or mock tail radiation as follows.
Prior to the start of the tail radiation regimen, mice were habituated over one week by spending 1 hour/day in individual wire mesh cages on the elevated wire mesh grid. In addition, prior to each measurement, mice spent 30 minutes on the wire mesh grid to habituate before measurements were taken. Two measurements of baseline thresholds were taken on two different days prior to the start of the radiation regimen. During the radiation regimen and for 2 weeks following the end of the regimen, mice were tested twice per week on two different, non-consecutive days. Mice receiving mock treatment and 1 subgroup of mice receiving tail radiation were injected with saline (ip) 15 minutes prior to testing. […]

[3] = tested on: chronically UV-irradiated mice; experiment: naloxone-induced somatic symptoms of opiate withdrawal after chronic UVB exposure; details: UVB 50 mJ/cm^2/day for 6 weeks, 2 mg/kg sc, counted over 25 minutes
Protocol: To obtain the data shown in FIG. 9, mice were either exposed to 50 mJ/cm^2/day UVB radiation, or mock-exposed 5 days per week for 6 weeks. These two groups of mice were divided into subgroups and either injected with a dose of 2 mg/kg naloxone(sc) or saline. […] The symptoms observed include wet dog shake, paw tremor, jumping, grooming, teeth chatter, rearing and diarrhea.
This example assesses physical dependence to opiate agents by evaluating withdrawal symptoms in mice upon acute administration of an opiate antagonist. In mice, symptoms of opiate withdrawal include shaking vigorously (called a “wet-dog shake”), paw tremors, teeth chattering, jumping, rearing, increased grooming, and diarrhea. The occurrence of these symptoms were measured in mice either exposed to 50 mJ/cm^2/day UVB radiation 5 days per week for 6 weeks or mock-exposed on the same schedule. One subgroup of each group of mice was injected with 2 mg/kg subcutaneous naloxone and number of occurrences of each of the above-mentioned symptoms was counted over 25 minutes immediately following naloxone injection. The other subgroup was administered a subcutaneous injection of saline before the 25-minute observation period.

## C=CCN1CC[C@]23c4c5ccc(O)c4O[C@H]2C(=O)CC[C@@]3(O)[C@H]1C5 [naloxone]
[1]
  effect on radiation-induced lethargy (total distance traveled in 30 minutes): Naloxone-Reversible Lethargy
[2]; mock-exposed mice, 10 mg/kg, compared to mock-exposed, saline-treated mice
  sensitivity to mechanical and thermal stimuli: increased sensitivity to mechanical and thermal stimuli
[2]; tail-irradiated mice 5 Gy/day for 6 weeks, 10 mg/kg 15 minutes before testing, 10 mg/kg
  effect on radiation-induced changes in mechanical and thermal analgesic thresholds: prevented; also recorded: prevents changes in analgesic thresholds
[2]; tail-irradiated mice, 10 mg/kg 15 minutes before testing, as the radiation regimen progressed
  sensitivity to mechanical and thermal stimuli: increased sensitivity to both mechanical and thermal stimuli
[2]; tail-irradiated mice, upon naloxone injection, 10 mg/kg
  other withdrawal phenotypes (jumping, wet-dog shaking, teeth chattering, diarrhea): not observed acutely
[3]
  jumping behavior: only group to show any jumping behavior at all
[3]; compared to all other groups
  occurrences of wet dog shakes, teeth chattering, paw tremoring, grooming and rearing: significantly more
